From PubChem BioAssay AID1322 (NMMLSC, 2008)
Activity calls are given as the source filed them. No rule for the calls is given here.

Molecular target: Bcl-2-like protein 1 (Homo sapiens) (UniProt Q07817)
Experiment: Bcl-XL binding to Bim peptide disruption – biochemical, multiplexed, bead flow cytometry, human Bcl-XL, dose response (AID 1322); as to inhibition: test concentration not given here
Conditions: Bead-based flow cytometry, MCF; for inhibition: hits give high values

Sequence of Bcl-2-like protein 1 (Homo sapiens) (Q07817 whole entry, looked up): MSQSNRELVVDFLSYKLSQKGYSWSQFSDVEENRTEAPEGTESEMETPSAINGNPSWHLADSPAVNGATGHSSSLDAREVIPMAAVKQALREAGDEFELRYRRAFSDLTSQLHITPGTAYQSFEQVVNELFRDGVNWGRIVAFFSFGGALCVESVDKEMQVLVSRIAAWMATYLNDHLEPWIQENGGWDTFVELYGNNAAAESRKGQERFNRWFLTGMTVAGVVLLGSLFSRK

| Compound | inhibition | other results |
| --- | --- | --- |
| Cn1c(=O)c(C(=O)COC(=O)c2cc(-c3ccco3)nc3ccccc23)c(N)n(Cc2ccccc2)c1=O | inactive | – |
| CCn1c(C)nc2cc(C(=O)N/N=C/c3ccc(O)c(O)c3O)ccc21 | inactive | – |
| COCCN=c1scc(-c2ccco2)n1/N=C/c1ccc(O)c(O)c1O | – | outcome: inactive |
| COc1cccc(/C=N/Nc2nn3cnnc3c3ccccc23)c1O | – | EC50: inactive |
| Cc1ccc(NC2=C(Cl)C(=O)c3ccccc3C2=O)cc1 | inactive | – |
| O=C(Nc1nnc(COc2ccc(Cl)cc2)s1)c1ccco1 | inactive | – |
| CCOc1cc(/C=N/NC(N)=O)ccc1OCC(=O)Nc1ccc(C)c(C)c1 | inactive | – |
| O=C(Cn1cncc1-c1ccc([N+](=O)[O-])cc1)Nc1ccccc1F | inactive | – |
| Cc1ccc(C(=O)CCC(=O)Nc2ccc(Cl)c(S(=O)(=O)Nc3cccc(Cl)c3)c2)cc1 | inactive | – |
| COc1ccc(Cl)cc1-n1c(C)cc(C=O)c1C | inactive | – |
| COc1ccc(NC(=O)/C(Cl)=C(/Cl)S(=O)Cc2ccccc2)cn1 (configuration not stated) | inactive | – |
| COc1cc(C=Nc2cccc(C)c2)c(O)c([N+](=O)[O-])c1 | inactive | – |
| Cc1nn(-c2ccc(Cl)cc2)c(Cl)c1/C=C(\C#N)C(N)=O | inactive | – |
| COc1ccc(S(=O)(=O)NCCSc2ccc(Cl)cc2)cc1OC | inactive | – |
| O=C(/C=C/c1ccc(-c2ccccc2)o1)c1ccccc1 | inactive | – |
| COc1ccc(N=C2NC(=O)/C(=C\C=C\c3ccco3)S2)cc1 | inactive | – |
| O=C(COc1ccccc1)Nc1ccc2c(c1)Cc1cc(NC(=O)COc3ccccc3)ccc1-2 | inactive | – |
| CC(C)c1ccc(C2CC(c3ccc(Br)cc3)=NN2C(N)=S)cc1 (configuration not stated) | – | outcome: inactive |
| Cc1ccc(N=c2ssnc2Cl)cc1 | inactive | – |
| COc1cc(N=c2ssnc2Cl)cc(OC)c1OC | inactive | – |
| CC(/C=C/C(=O)c1ccc(C)cc1)=C\c1ccccc1 | inactive | – |
| Cc1ccc(-n2c(CSc3nc(C)cc(C)n3)nnc2SCC(=O)NCc2ccco2)cc1 | inactive | – |
| COc1ccc(S(=O)(=O)NCCOc2cccc3cccnc23)cc1OC | – | outcome: inactive |
| O=C(NCc1ccccc1)c1ccc2nc(-c3ccco3)c(-c3ccco3)nc2c1 | inactive | – |
| C#CCOCCOCCOCCNc1nc(N2CCN(C(=O)[C@H](CCCCN)n3cc(CCCC)nn3)CC2)nc(N2CCN(C(=O)[C@H](Cc3ccc(O)cc3)n3cc(CCO)nn3)CC2)n1 | inactive | – |
| COc1cc(/C=C2\S/C(=N/S(=O)(=O)c3ccccc3)NC2=O)c([N+](=O)[O-])cc1OC | inactive | – |

| Compound | inhibition | other results |
| --- | --- | --- |
| CN1C2C=C3C(C#N)=C(N)C(C#N)(C#N)[C@@H](c4ccsc4)[C@@H]3C1CC2 (some centres not stated) | inactive | – |
| OC(CNC1CCCCC1)COCCOc1ccc(Br)cc1 (configuration not stated) | inactive | – |
| S=c1[nH]cc(-c2ccccc2)n1-c1ccccc1 | inactive | – |
| Cc1cccc(-c2nnc3n2N=C(c2ccccc2)CS3)c1 | inactive | – |
| CCOC(=O)C1=C(CC)Nc2ccccc2N=C1NC(=O)c1ccc(S(=O)(=O)N2CCOCC2)cc1 | – | outcome: inactive |
| c1ccc(-c2nc(N3CCCCC3)nc3ccccc23)cc1 | inactive | – |
| CC(C)C(=O)N1CCN(c2ccc([N+](=O)[O-])cc2Cl)CC1 | inactive | – |
| O=C(O)CC/C(=C\c1cc([N+](=O)[O-])ccc1Cl)c1nc2ccccc2s1 | inactive | – |
| CN(C)c1cccc(NC(=O)C2(C)CC2(Cl)Cl)c1 (configuration not stated) | – | outcome: inactive |
| Cc1cc(C)c2nc3nc(C)c(C)cc3c(N)c2c1 | inactive | – |
| Cn1cc(CN2C[C@]3(C)C[C@H]2CC(C)(C)C3)c(-c2ccc3c(c2)OCCO3)n1 | – | outcome: inactive |
| COc1ccc(NC(=O)/C(C#N)=C/c2c(C)nn(-c3ccc(F)cc3)c2Cl)cc1Cl | inactive | – |
| COc1cc(/C=C2/NC(=O)N(Cc3ccccc3F)C2=O)ccc1O | – | outcome: inactive |
| C=CS(=O)(=O)c1sc(Cl)c(N2CCOCC2)c1[N+](=O)[O-] | – | outcome: inactive |
| CCN(CC)CCN(C(=O)c1ccc(N2C(=O)CCC2=O)cc1)c1nc2cc3c(cc2s1)OCCO3 | – | outcome: inactive |
| CCOC(=O)CSC1=NC(=O)/C(=C\c2ccc(OC(C)=O)cc2)S1 | inactive | – |
| COc1cc2c(cc1OC)C(c1ccccc1F)OC(=O)C2 (configuration not stated) | inactive | – |
| COc1ccc(S(=O)(=O)NCCSc2ccccc2)cc1OC | inactive | – |
| O=C(NCc1ccccn1)c1ccc2nc(-c3ccco3)c(-c3ccco3)nc2c1 | inactive | – |
| COCc1cc(CN2CCCC(CNC(=O)c3ccc(F)cc3)C2)ccc1OC (configuration not stated) | inactive | – |
| COc1ccc(OC)c(Nc2ccc(C(=O)O)cc2[N+](=O)[O-])c1 | – | outcome: inactive |
| C/C(=C\c1ccco1)C1Nc2cccc3cccc(c23)N1 | inactive | – |
| CCN(CC)c1ccc(NC(=O)COc2ccccc2C#N)cc1S(=O)(=O)Nc1ccccc1OC | inactive | – |
| Cc1cccc(C(=O)N2CCC(c3nc(-c4ccc(S(=O)(=O)N5CCOCC5)cc4)no3)CC2)c1 | inactive | – |
| C/C(=N\NC(=O)COc1ccc(C(C)(C)C)cc1)c1ccc2c(c1)OCCO2 | inactive | – |
| CC(=O)OCCCNc1cc(Sc2nc3ccccc3s2)c2nonc2c1[N+](=O)[O-] | inactive | – |

| Compound | inhibition | other results |
| --- | --- | --- |
| Cc1ccc(CNc2ccc3c(c2)OCO3)c(C)c1 | inactive | – |
| CN(C)c1ccc(C=C2C(=O)NC(=O)NC2=O)cc1[N+](=O)[O-] | inactive | – |
| CCc1cccc(CC)c1NC(=S)N1CCn2cccc2C1c1cccnc1 (configuration not stated) | – | outcome: inactive |
| O=C(NNC(=O)C12CC3CC(CC(C3)C1)C2)c1ccco1 | – | outcome: inactive |
| COc1cc(OC)c([N+](=O)[O-])cc1/C=N/NC(=O)c1ccncc1 | inactive | – |
| Cc1ccc(-c2cc(-c3ccc(F)cc3)nc(N)c2C#N)o1 | inactive | – |
| O=C(NCCc1ccccc1)c1ccc2nc(-c3ccco3)c(-c3ccco3)nc2c1 | inactive | – |
| Cc1sc2nc(C(C)C)nc(SCC(=O)N3c4ccccc4CC3C)c2c1C (configuration not stated) | inactive | – |
| Fc1ccc(C2=Nn3c(Cc4ccccc4F)nnc3SC2)cc1 | inactive | – |
| O=C(CSc1nc2ccsc2c(=O)n1Cc1ccc(C(=O)O)cc1)NCC1CCCO1 (configuration not stated) | inactive | – |
| COc1cccc(C(=O)/C=C/Nc2ccc(S(=O)(=O)Nc3onc(C)c3C)cc2)c1 | inactive | – |
| Clc1nc2ccccc2cc1/C=N/Nc1nc2ccccc2[nH]1 | – | EC50: inactive |
| O=C(NCC1CCCO1)c1ccc2c(=O)n(-c3ccc(F)cc3)c(=S)[nH]c2c1 (configuration not stated) | inactive | – |
| N#CC(C#N)=C1C=CC=CN1/C(=C\c1ccco1)C(=O)c1ccccc1 | inactive | – |
| Cn1c(CNc2nc(-c3ccccc3)cs2)nnc1SCC(=O)N1CCc2ccccc21 | inactive | – |
| COc1ccccc1NC1=C(NC(C)=O)C(=O)c2ccccc2C1=O | inactive | – |
| O=C1c2ccccc2C(=O)N1c1cccc2cccnc12 | – | outcome: inactive |
| Cc1ccc(-c2cc(-c3ccc(C)o3)nc(N)c2C#N)cc1 | inactive | – |
| Cc1ccc(-c2cc(C(=O)Nc3cc(C(=O)O)ccc3C)c3ccccc3n2)cc1 | – | outcome: inactive |
| CCN(CC)c1ccc(NC(=O)c2ccc(=O)[nH]c2)cc1S(=O)(=O)Nc1ccccc1OC | inactive | – |
| O=C(CCc1ccccc1)N1CCN(c2ccccn2)CC1 | – | outcome: inactive |
| CCCCCCn1nc(C(=O)Nc2nc3c(s2)CCCC3)c2ccccc2c1=O | inactive | – |
| Cc1ccc(-c2nc3c(c(=O)[nH]c(=O)n3Cc3ccccc3)n2Cc2ccccc2)o1 | inactive | – |
| O=C(NCc1ccccc1)C(=O)Nc1nc(C23CC4CC(CC(C4)C2)C3)cs1 | inactive | – |
| CN(C)CCNC(=O)C(=O)C1C(=O)Nc2ccccc21 (configuration not stated) | – | outcome: inactive |
| O=C1C(Cl)=C(N2CCN(c3ccccc3[N+](=O)[O-])CC2)C(=O)c2ccccc21 | inactive | – |

| Compound | inhibition | other results |
| --- | --- | --- |
| CN(Cc1ccccc1)c1nc2c(c(=O)[nH]c(=O)n2C)n1C | inactive | – |
| O=C(Oc1ccc(-c2cnc3ccccc3n2)cc1)c1cccc([N+](=O)[O-])c1 | inactive | – |
| COc1ccc(NC(=O)c2cc(-c3ccc(C)o3)nc3ccccc23)cc1OC | inactive | – |
| CCOCCOc1nc2c(c(=O)n(C)c(=O)n2C)n1CCc1ccccc1 | inactive | – |
| COC(=O)CCC(=O)Nc1sc(Cc2ccccc2)c(C)c1C(N)=O | inactive | – |
| Cc1ccccc1OCC(=O)N/N=C/c1ccccn1 | inactive | – |
| COc1ccc(N2CCN(CCCNC(=O)CCCn3c(=O)[nH]c4ccsc4c3=O)CC2)cc1 | inactive | – |
| CC1(C)CC(NC(=O)COc2ccc([N+](=O)[O-])cc2)CC(C)(C)N1 | inactive | – |
| CCc1ccc(/C=C/C(=O)c2cc(Br)ccc(=O)c2O)cc1 | inactive | – |
| O=[N+]([O-])c1c(NCCCO)cc(Sc2nc3ccccc3s2)c2nonc12 | inactive | – |
| CS(=O)(=O)NN1C(=O)c2ccccc2NC1c1cccs1 (configuration not stated) | inactive | – |
| O=C1C=C(Nc2ccccc2)C(=O)c2ccccc21 | inactive | – |
| Cc1ccc(Nc2nc(CSc3nnc(-c4cccnc4)n3-c3ccccc3C)cs2)cc1 | inactive | – |
| CCNC(=S)Nc1ccc(OCC)cc1 | inactive | – |
| CC(=O)OCCNc1cc(Sc2nc3ccccc3[nH]2)c2nonc2c1[N+](=O)[O-] | inactive | – |
| CCOC(=O)CSc1nnc(-c2cccc(Cl)c2)n1CC | inactive | – |
| COc1ccc(CC(=O)Nc2ccc3nc(C)sc3c2)cc1OC | inactive | – |
| O=C(Cn1c(-c2ccccc2)noc1=O)N1CCC(Cc2ccccc2)CC1 | – | outcome: inactive |
| CCOc1ccccc1CNc1ccc(O)cc1 | – | outcome: inactive |
| O=C(O)CC1S/C(=N/N=C/C=C/c2ccccc2[N+](=O)[O-])NC1=O (configuration not stated) | – | outcome: inactive |
| COc1ccc(C2CN(C)CC2C(=O)c2ccc(F)cc2)cc1Cl (configuration not stated) | – | outcome: inactive |
| S=C(Nc1ccccc1)N1CCn2cccc2C1c1cccnc1 (configuration not stated) | inactive | – |
| COC(=O)c1ccc(/C=N/NC(=O)CC(=O)NCc2cccnc2)cc1 | – | outcome: inactive |
| COc1cccc(NC(=O)CSc2nncn2N)c1 | inactive | – |
